From patent US11478451B1, “Macrocyclic chlorine substituted indole derivatives” (Bayer Aktiengesellschaft, priority 2017, dated 2022)
Where a name gives a salt, the structure may show the parent alone. Read-outs that look alike come from different tables or passages of the source.

Assays:
SUDHL10 cells [1] = assay: Induction of caspase-3/7 activity (Caspase-Glo 3/7), SUDHL10; assay type: cell-based; settings: EC50, median, SUDHL10, 3 h treatment
Outline: (§1)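 Caspase-Glo 3/7 luminescence after 3 h compound treatment, 37 °C, humidified; medium-only background subtracted; rim wells excluded.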

AMO-1 cells = assay: Antiproliferation assay (CellTiter-Glo, 72 h), AMO-1; assay type: cell-based; settings: IC50, median, AMO-1, 72 h, read-out: Antiproli AMO-1 [M] median
Outline: (§2)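 CellTiter-Glo luminescence readout; 72 h compound exposure, 37 °C, humidified; rim wells excluded; time-zero reference plate plated in parallel and read identically.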

HMC-1-8 cells = assay: Antiproliferation assay (CellTiter-Glo, 72 h), HMC-1-8; assay type: cell-based; settings: IC50, median, HMC-1-8, 72 h, read-out: Antiproli HMC-1-8 [M] median
Outline: as §2

SNU-389 cells = assay: Antiproliferation assay (CellTiter-Glo, 72 h), SNU-389; assay type: cell-based; settings: read-out: Antiproli SNU-389 [M] median
Procedure: (§3) Assessment of the Anti-Proliferative Effect of Compounds in Different Cell Lines
(§4) The impact of compounds on the proliferation of different cell lines was assessed using the CellTiter-Glo® Luminescent Cell Viability reagent from Promega (G7573).
(§5) In parallel, cells were plated in a reference (day 0) plate for time zero determination.
(§6) Rim wells were excluded. The cells were incubated for 72 h hours in a humidified incubator at 37° C. The day 0 plate was measured by adding 30 μL/well of CTG solution (CellTiter-Glo® Luminescent Cell Viability reagent, Promega G7573) to time zero wells in the reference plate followed by a 10 minutes incubation and luminescence reading at 0.1 ms. using the PHERAstar FS microplate reader (BMG Labtech).
(§7) After 72 h incubation, the treated plates were measured in the same way as the day 0 plate mentioned above.

DMS-114 cells = assay: Antiproliferation assay (CellTiter-Glo, 72 h), DMS-114; assay type: cell-based; settings: Homo sapiens, DMS-114, 72 h; read-out: Antiproli DMS-114 [M] median
Procedure: as §3, §4, §5, §6, §7

SUDHL5 cells [2] = assay: Induction of caspase-3/7 activity (Caspase-Glo 3/7), SUDHL5; assay type: cell-based; settings: EC50, median, SUDHL5, 3 h treatment
Outline: as §1

SUDHL5 cells [3] = assay: Antiproliferation assay (CellTiter-Glo, 72 h), SUDHL5; assay type: cell-based; settings: IC50, median, SUDHL5, 72 h, read-out: Antiproli SUDHL5 [M] (median)
Outline: as §2

SUDHL10 cells [4] = assay: Induction of cytotoxicity (CellTiter-Glo, 5 h), SUDHL10; settings: SUDHL10, 5 h
SUDHL5 cells [5] = assay: Induction of cytotoxicity (CellTiter-Glo, 5 h), SUDHL5; settings: SUDHL5, 5 h
Procedure: Therefore, cytotoxicity assays were run in parallel in SUDHL5 and SUDHL10 cells.
The different cell lines were plated in culture medium (RPMI 1640 [GIBCO #22400-089] supplemented with 10% Fetal Bovine Serum) at a density of 3,300 cells in 30 μL/well in a sterile, solid black, flat bottom, polystyrene, TC-treated 384-well microplate (Corning #3571) using Multidrop Combi Reagent Dispenser. As a control, medium without cells was also added to the plate. Cells were incubated in a humidified incubator at 37° C. overnight. […] Rim wells were excluded. The cells were incubated for 5 h hours in a humidified incubator at 37° C. After this incubation, 30 μL of CellTiter-Glo® Luminescent Cell Viability reagent (Promega, G7573) was added to each well using the Multidrop Combi Reagent Dispenser, followed by 15 min incubation on a shaker at room temperature. Finally, luminescence was read at 0.1 ms, with a gain of 3000 using the PHERAstar FS microplate reader (BMG Labtech).

MV-4-11 cells = assay: Antiproliferation assay (CellTiter-Glo, 72 h), MV-4-11; assay type: cell-based; settings: IC50, median; MV-4-11, 72 h; read-out: Antiproli MV-4-11 [M] median
Procedure: as §3, §4, §5, §6, §7

[6] = Homo sapiens, SU-DHL10, 5 h, read-out: Cytotox SUDHL10 [M] (median), IC50, median
[7] = read-out: Cytotox SUDHL5 [M] (median), IC50, median
[8] = read-out: Cytotox SUDHL10 [M] (median), IC50, median

SMILES	EC50 (SUDHL10 cells [1]; Homo sapiens, SU-DHL10, 3 h) [µM]	IC50 (SNU-389 cells; 72 h) [M]	IC50 (AMO-1 cells; Homo sapiens, AMO1, 72 h) [M]	IC50 (HMC-1-8 cells; 72 h) [M]	IC50 (DMS-114 cells) [M]	IC50 (SUDHL5 cells [3]) [M]	IC50 (AMO-1 cells) [M]	IC50 (SUDHL5 cells [5]; [7]) [M]	IC50 (SUDHL10 cells [4]; [8]) [M]	further results
Cc1c2c(nn1C)COCCn1c(C(=O)O)c(CCCOc3cccc4ccccc34)c3ccc(Cl)c-2c31 (racemic) [Example 87, (rac)-11-chloro-9,10-dimethyl-1-{3-[(naphthalen-1-yl)oxy]propyl}-4,5,7,9-tetrahydropyrazolo[4′,3′:7,8][1,4]oxazonino[6,5,4-hi]indole-2-carboxylic acid]	0.21	1.52e-06	3.8e-07	4.7e-06	1.32e-06	–	–	–	–	EC50 (SUDHL5 cells [2]; Homo sapiens, SU-DHL-5, 3 h): 0.17 µM; IC50 (SUDHL5 cells [3]; Homo sapiens, SU-DHL-5, 72 h): 5.5e-07 M; IC50 (SUDHL10 cells [4]; [6]): 2.6e-07 M
Cc1c2c(nn1C)COCC(F)(F)CCn1c(C(=O)O)c(CCCOc3cccc4ccccc34)c3ccc(Cl)c-2c31 (single isomer, unassigned; enantiomer 1) [Example 56, 4-chloro-12,12-difluoro-2,3-dimethyl-7-{3-[(naphthalen-1-yl)oxy]propyl}-2,10,11,12,13,15-hexahydropyrazolo[4′,3′:9,10][1,6]oxazacycloundecino[8,7,6-hi]indole-8-carboxylic acid-N-ethylethanamine salt—Enantiomer 1]	–	1.23e-06	–	–	7.79e-07	3.4e-07	4.4e-07	2.2e-07	3.3e-07	EC50 (SUDHL5 cells [2]): 0.13 µM; EC50 (SUDHL10 cells [1]): 0.31 µM; IC50 (HMC-1-8 cells): 3.3e-06 M
CCc1c2c(nn1C)COCCCCn1c(C(=O)O)c(CCCOc3cccc4cc(F)ccc34)c3ccc(Cl)c-2c31 (single isomer, unassigned; enantiomer 1) [Example 37, (+)-4-chloro-3-ethyl-7-{3-[(6-fluoronaphthalen-1-yl)oxy]propyl}-2-methyl-2,10,11,12,13,15-hexahydropyrazolo[4′,3′:9,10][1,6]oxazacycloundecino[8,7,6-hi]indole-8-carboxylic acid-N-ethylethanamine salt (Enantiomer 1)]	0.33	1.05e-06	3.6e-07	1.6e-06	1.12e-06	–	–	–	–	IC50 (SUDHL10 cells [4]; [6]): 4.3e-07 M
Cc1c2c(nn1C)COCCCCn1c(C(=O)O)c(CCCOc3cccc4cc(F)ccc34)c3ccc(Cl)c-2c31 (single isomer, unassigned; enantiomer 2) [Example 17, (−)-4-chloro-7-{3-[(6-fluoronaphthalen-1-yl)oxy]propyl}-2,3-dimethyl-2,10,11,12,13,15-hexahydropyrazolo[4′,3′:9,10][1,6]oxazacycloundecino[8,7,6-hi]indole-8-carboxylic acid-N-ethylethanamine salt (Enantiomer 2)]	–	–	–	–	–	2.1e-07	–	2.2e-07	6.6e-07	EC50 (SUDHL5 cells [2]): 0.29 µM; EC50 (SUDHL10 cells [1]): 0.38 µM; IC50 (MV-4-11 cells): 6.7e-06 M; IC50 (HMC-1-8 cells): 1.2e-06 M; IC50 (SNU-389 cells; IC50, median, SNU-389, 72 h): 9.86e-07 M
Cc1c2c(nn1C)CN(C)CCCCn1c(C(=O)O)c(CCCOc3cccc4ccccc34)c3ccc(Cl)c-2c31 (single isomer, unassigned; enantiomer 2) [Example 13, (−)-4-chloro-2,3,14-trimethyl-7-[3-(naphthalen-1-yloxy)propyl]-10,11,12,13,14,15-hexahydro-2H-pyrazolo[3′,4′:8,9][1,6]diazacycloundecino[10,11,1-hi]indole-8-carboxylic acid-N-ethylethanamine salt (Enantiomer 2)]	–	–	–	–	–	6.4e-06	–	6.9e-06	–	IC50 (MV-4-11 cells): 1.22e-05 M
Cc1c2c(nn1C)COCCCCn1c(C(=O)O)c(CCCOc3cccc4ccccc34)c3ccc(Cl)c-2c31 (single isomer, unassigned; enantiomer 2) [Example 27, 4-chloro-2,3-dimethyl-7-[3-(naphthalen-1-yloxy)propyl]-2,10,11,12,13,15-hexahydropyrazolo-[4′,3′:9,10][1,6]oxazacycloundecino[8,7,6-hi]indole-8-carboxylic acid-N-ethylethanamine salt (Enantiomer 2)]	–	–	–	–	–	7.8e-06	–	–	–	IC50 (MV-4-11 cells): 1.61e-05 M
CCc1c2c(nn1C)COCC(O)CCn1c(C(=O)O)c(CCCOc3cccc4cc(F)ccc34)c3ccc(Cl)c-2c31 (stereo not drawn) [Example 100, 4-chloro-3-ethyl-7-{3-[(6-fluoronaphthalen-1-yl)oxy]propyl}-12-hydroxy-2-methyl-2,10,11,12,13,15-hexahydropyrazolo[4′,3′:9,10][1,6]oxazacycloundecino[8,7,6-hi]indole-8-carboxylic acid-N-ethylethanamine salt]	–	1.18e-06	–	–	1.85e-07	1.9e-07	6.7e-07	1.8e-07	1.8e-07	EC50 (SUDHL5 cells [2]): 0.22 µM; EC50 (SUDHL10 cells [1]): 0.12 µM; IC50 (HMC-1-8 cells): 5e-06 M

Now from value to molecule, other results behind:

EC50 (SUDHL10 cells [1]; Homo sapiens, SU-DHL10, 3 h) [µM]	IC50 (SNU-389 cells; 72 h) [M]	SMILES	IC50 (AMO-1 cells; Homo sapiens, AMO1, 72 h) [M]	IC50 (HMC-1-8 cells; 72 h) [M]	IC50 (DMS-114 cells) [M]	IC50 (SUDHL5 cells [3]) [M]	IC50 (AMO-1 cells) [M]	IC50 (SUDHL5 cells [5]; [7]) [M]	IC50 (SUDHL10 cells [4]; [8]) [M]	further results
0.18	1.7e-06	CCc1c2c(nn1C)CN(C)CCCCn1c(C(=O)O)c(CCCOc3cccc4ccccc34)c3ccc(Cl)c-2c31 (single isomer, unassigned; enantiomer 1) [Example 23, 4-chloro-3-ethyl-2,14-dimethyl-7-[3-(naphthalen-1-yloxy)propyl]-10,11,12,13,14,15-hexahydro-2H-pyrazolo[3′,4′:8,9][1,6]diazacycloundecino[10,11,1-hi]indole-8-carboxylic acid (Enantiomer 1)]	6.1e-07	5.2e-06	2.06e-06	–	–	–	–	–
–	5.56e-07	CCc1nn(C)c2c1-c1c(Cl)ccc3c(CCCOc4cccc5cc(F)ccc45)c(C(=O)O)n(c13)CCCCN(C)C2 (single isomer, unassigned; enantiomer 2) [Example 41, 4-chloro-3-ethyl-7-{3-[(6-fluoronaphthalen-1-yl)oxy]propyl}-1,14-dimethyl-10,11,12,13,14,15-hexahydro-1H-pyrazolo[3′,4′:8,9][1,6]diazacycloundecino[10,11,1-hi]indole-8-carboxylic acid (Enantiomer 2)]	–	7e-07	3.65e-07	1.5e-07	5.4e-07	–	–	–
0.15	1.09e-06	CCc1nn(C)c2c1-c1c(Cl)ccc3c(CCCOc4cccc5cc(F)ccc45)c(C(=O)O)n(c13)CCCCN(C)C2 (racemic) [Example 39, (rac)-4-chloro-3-ethyl-7-{3-[(6-fluoronaphthalen-1-yl)oxy]propyl}-1,14-dimethyl-10,11,12,13,14,15-hexahydro-1H-pyrazolo[3′,4′:8,9][1,6]diazacycloundecino[10,11,1-hi]indole-8-carboxylic acid]	2.4e-07	3.3e-06	6.38e-07	–	–	–	–	IC50 (SUDHL5 cells [5]; Homo sapiens, SU-DHL-5, 5 h, read-out: Cytotox SUDHL5 [M] (median), IC50, median): 1.5e-07 M; IC50 (SUDHL10 cells [4]; [6]): 2.4e-07 M
0.22	6.96e-07	CCc1c2c(nn1C)CN(C)CCCCn1c(C(=O)O)c(CCCOc3cccc4cc(F)ccc34)c3ccc(Cl)c-2c31 (single isomer, unassigned; enantiomer 1) [Example 6, 4-chloro-3-ethyl-7-{3-[(6-fluoronaphthalen-1-yl)oxy]propyl}-2,14-dimethyl-10,11,12,13,14,15-hexahydro-2H-pyrazolo[3′,4′:8,9][1,6]diazacycloundecino[10,11,1-hi]indole-8-carboxylic acid (Enantiomer 1)]	–	3.4e-06	4.97e-07	–	2.4e-07	1.5e-07	3.6e-07	–
